Measured values published in patent publication US10106526B2, “Inhibitors of cyclin-dependent kinase 7 (CDK7)” (SYROS PHARMACEUTICALS, INC., priority 2014, dated 2018).

Experiments:
[1] = biological target: CDK7/Cyclin H/MAT1 trimeric complex (Homo sapiens, UniProt P50613); test: CDK7 kinase assay, Caliper/LabChip EZ Reader (Biortus Biosciences); type: biochemical; details: CDK7/Cyclin H/MAT1 10 nM, ATP 2 mM, FAM-CDK7tide 2 μM, 30 min incubation, read-out: CDK7 Inhibition (IC50)
Method: Compounds of the invention were further assayed for CDK7 activity at Biortus Biosciences (Jiangyin, Jiangsu Province, P.R. of China) using a CDK7 kinase assay developed with a Caliper/LabChip EZ Reader (Perkin Elmer, Waltham, Mass.). […] The incubation period was chosen such that the total fraction of phosphorylated peptide product produced was <20% for the uninhibited kinase.

Jurkat cells = test: Inhibition of proliferation of Jurkat cells (CellTiter-Glo, 72 hour); type: cell-based, human; details: 10 μM to 316 pM
In short: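 Human T-cell leukemia Jurkat cells in RPMI 1640 with 10% FBS were exposed 72 h at 37 °C, 5% CO2 to compounds from 10 μM to 316 pM in 0.5-log steps. Anti-proliferative effect measured by CellTiter-Glo; IC50 reported in binned categories.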

CDK7 = biological target: T1, CDK7 (Homo sapiens, UniProt P50613); test: CDK7 kinase activity, Adapta kinase assay (Life Technologies); type: biochemical; details: Adapta kinase assay at Life Technologies; 10 μM down to 0.514 nM, 3-fold serial dilutions; read-out: CDK7 Inhibition (IC50)
T1 construct: purchased Life Technologies (Adapta kinase assay service)
T1 sequence (P50613 whole entry): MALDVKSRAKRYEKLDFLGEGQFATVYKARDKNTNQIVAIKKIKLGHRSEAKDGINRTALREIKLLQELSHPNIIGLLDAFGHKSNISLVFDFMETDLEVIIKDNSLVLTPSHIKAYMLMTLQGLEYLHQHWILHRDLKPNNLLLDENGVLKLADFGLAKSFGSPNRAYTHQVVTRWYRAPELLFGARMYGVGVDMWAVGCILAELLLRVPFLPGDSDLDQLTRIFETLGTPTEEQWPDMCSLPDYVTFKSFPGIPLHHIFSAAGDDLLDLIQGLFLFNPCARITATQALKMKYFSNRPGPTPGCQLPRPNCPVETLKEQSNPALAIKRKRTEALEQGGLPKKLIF
T1 sequence (P51946 whole entry partner): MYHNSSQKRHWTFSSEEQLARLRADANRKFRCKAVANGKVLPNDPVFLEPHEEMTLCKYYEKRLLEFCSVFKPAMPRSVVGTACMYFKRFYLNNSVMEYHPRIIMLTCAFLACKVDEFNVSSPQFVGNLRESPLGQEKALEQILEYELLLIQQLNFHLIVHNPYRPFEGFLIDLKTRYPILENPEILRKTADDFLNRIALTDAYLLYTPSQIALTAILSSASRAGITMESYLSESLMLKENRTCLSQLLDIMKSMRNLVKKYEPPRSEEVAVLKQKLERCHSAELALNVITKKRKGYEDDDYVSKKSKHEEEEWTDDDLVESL
T1 sequence (P51948 whole entry partner): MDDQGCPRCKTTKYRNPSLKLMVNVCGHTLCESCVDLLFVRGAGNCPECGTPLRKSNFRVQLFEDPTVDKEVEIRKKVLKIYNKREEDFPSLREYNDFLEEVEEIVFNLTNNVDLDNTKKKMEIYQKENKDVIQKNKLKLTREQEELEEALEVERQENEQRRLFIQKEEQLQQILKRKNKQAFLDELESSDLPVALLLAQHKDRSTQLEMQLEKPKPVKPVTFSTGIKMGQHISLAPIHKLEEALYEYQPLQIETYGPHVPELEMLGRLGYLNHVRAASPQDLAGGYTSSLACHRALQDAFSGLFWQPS
In short: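 Adapta kinase activity assay run as a commercial service; substrates not specified here. Compounds tested in 3-fold serial dilutions from 10 μM down to 0.514 nM.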

A673 cells = test: Inhibition of proliferation of A673 cells (CyQUANT, 72 hour); type: cell-based, human; details: 72 hour proliferation
In short: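 Human Ewing's sarcoma A673 cells in DMEM + 10% FBS + 1 mM sodium pyruvate, 37 °C, 5% CO2, exposed to compounds from 4 μM to 126.4 pM (0.5 log dilutions) for 72 h. Proliferation read by CyQUANT; IC50 reported as binned categories.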

Sequence of CDK7/Cyclin H/MAT1 trimeric complex (P50613 whole entry): as the sequence (P50613 whole entry) above
Sequence of CDK7/Cyclin H/MAT1 trimeric complex (P51946 whole entry partner): as the sequence (P51946 whole entry partner) above
Sequence of CDK7/Cyclin H/MAT1 trimeric complex (P51948 whole entry partner): as the sequence (P51948 whole entry partner) above

IC50 [1] [µM]	IC50 (Jurkat cells; Homo sapiens) [µM]	IC50 (CDK7) [µM]	IC50 (Jurkat cells) [µM]	SMILES	IC50 (A673 cells; Homo sapiens) [µM]	IC50 (A673 cells) [µM]
< 0.1	> 5	< 0.1	–	C=CC(=O)N1CCC(CN[C@H]2CCC[C@@H](Nc3ncc(Cl)c(-c4c[nH]c5ccccc45)n3)C2)CC1 [Compound 124, 1-(4-(((1S,3R)-3-(5-chloro-4-(1H-indol-3-yl)pyrimidin-2-ylamino)cyclohexylamino)methyl)piperidin-1-yl)prop-2-en-1-One]	–	–
< 0.1	–	< 0.1	–	C=CC(=O)N1CCN([C@H]2CCC[C@@H](Nc3ncc(Cl)c(-c4c[nH]c5ccccc45)n3)C2)CC1 [Compound 168, 1-(4-((1S,3R)-3-(5-chloro-4-(1H-indol-3-yl)pyrimidin-2-ylamino)cyclohexyl)piperazin-1-yl)prop-2-en-1-One]	< 0.5	–
< 0.1	> 5	< 0.1	–	C=CC(=O)N1CC(N(C)[C@H]2CCC[C@@H](Nc3ncc(Cl)c(-c4c[nH]c5ccccc45)n3)C2)C1 [Compound 224]	–	–
< 0.1	–	–	< 0.5	C=CC(=O)N1CCN(CC2(O)CCC[C@@H](Nc3ncc(Cl)c(-c4c[nH]c5ccccc45)n3)C2)CC1 (single isomer, unassigned) [Compound 188]	–	< 0.5
< 0.1	–	< 0.1	–	CN(C)C/C=C/C(=O)Nc1ccc(C(=O)N[C@H]2CCC[C@@H](Nc3ncc(Cl)c(-c4c[nH]c5ccccc45)n3)C2)nc1 [Compound 106, N-((1S,3R)-3-(5-chloro-4-(1H-indol-3-yl)pyrimidin-2-ylamino)cyclohexyl)-5-((E)-4-(dimethylamino)but-2-enamido)picolinamide]	< 0.5	–
< 0.1	–	< 0.1	> 5	O=C(NC1CCCC(Nc2ncc(Cl)c(-c3cnn4ccccc34)n2)C1)C1CCN(C(=O)C=CCN2CCN(C3CC3)CC2)CC1 (stereo not shown) [Compound 223]	–	–
< 0.1	–	–	–	CCc1cnc(N[C@@H]2CCC[C@](C)(NCc3ccc(NC(=O)/C=C/CN(C)C)cn3)C2)nc1-c1n[nH]c2ccccc12 [Compound 413, (E)-4-(dimethylamino)-N-[6-[[[(1S,3R)-3-[[5-ethyl-4-(1H-indazol-3-yl)pyrimidin-2-yl]amino]-1-methyl-cyclohexyl]amino]methyl]-3-pyridyl]but-2-enamide]	< 0.5	–
< 0.1	–	–	–	CN(C)C/C=C/C(=O)Nc1ccc(CN[C@H]2CCC[C@@H](Nc3ncc(Cl)c(-c4c[nH]c5ccccc45)n3)C2)nc1 [Compound 261]	< 0.5	–
< 0.1	–	–	–	C=CC(=O)N1CCN(C2CCCC(Nc3ncc(Cl)c(-c4c[nH]c5ccccc45)n3)C2)C(C)C1 (stereo not shown) [Compound 260]	–	< 0.5
< 0.1	–	< 0.1	–	CN(C)CC=CC(=O)N1CC(N(C)C2CCCC(Nc3ncc(Cl)c(-c4c[nH]c5ccccc45)n3)C2)C1 (stereo not shown) [Compound 231]	–	–
0.1 to 1	–	–	–	CN(C)C/C=C/C(=O)N1CCN([C@H]2CCC[C@@H](Nc3ncc(Cl)c(C4C(=O)Nc5ccccc54)n3)C2)CC1 (stereo partly drawn) [Compound 293, 3-(5-chloro-2-(((1R,3S)-3-(4-((E)-4-(dimethylamino)but-2-enoyl)piperazin-1-yl)cyclohexyl)amino)pyrimidin-4-yl)indolin-2-One]	< 0.5	–
< 0.1	–	–	–	C=CC(=O)Nc1cnc(CN[C@H]2CCC[C@@H](Nc3ncc(Cl)c(-c4n[nH]c5ccccc45)n3)C2)nc1 [compound 405]	–	< 0.5
< 0.1	–	–	–	C=CC(=O)N[C@H]1CCN([C@H]2CCC[C@@H](Nc3ncc(Cl)c(-c4c[nH]c5ccccc45)n3)C2)C1 [Compound 370, N—((S)-1-((1S,3R)-3-((5-chloro-4-(1H-indol-3-yl)pyrimidin-2-yl)amino)cyclohexyl)pyrrolidin-3-yl)acrylamide]	< 0.5	–
< 0.1	–	–	–	C=C(F)C(=O)N1CCN([C@H]2CCC[C@@H](Nc3ncc(Cl)c(-c4c[nH]c5ccccc45)n3)C2)CC1 [compound 401]	–	< 0.5
< 0.1	–	–	–	CN(C)C/C=C/C(=O)Nc1ccc(CN[C@@]2(C)CCC[C@@H](Nc3ncc(C(F)(F)F)c(-c4c[nH]c5ccccc45)n3)C2)nc1 [Compound 403, (E)-4-(dimethylamino)-N-[6-[[[(1S,3R)-3-[[4-(1H-indol-3-yl)-5-(trifluoromethyl)pyrimidin-2-yl]amino]-1-methylcyclohexyl]amino]methyl]-3-pyridyl]but-2-enamide]	< 0.5	–
0.1 to 1	–	–	–	C=CC(=O)N1CCN([C@H]2CCC[C@@H](Nc3ncc(Cl)c(-c4n[nH]c5ccccc45)n3)C2)CC1 [compound 388]	–	< 0.5
0.1 to 1	–	–	–	CCc1cnc(N[C@@H]2CCC[C@](C)(NC(=O)c3ccc(NC(=O)/C=C/CN(C)C)cn3)C2)nc1-c1c(C)[nH]c2ccccc12 [Compound 412, 5-[[(E)-4-(dimethylamino)but-2-enoyl]amino]-N-[(1S,3R)-3-[[5-ethyl-4-(2-methyl-1H-indol-3-yl)pyrimidin-2-yl]amino]-1-methyl-cyclohexyl]pyridine-2-carboxamide]	< 0.5	–
< 0.1	–	–	–	C=CC(=O)N1CCN([C@@]23CCC[C@@](Nc4ncc(Cl)c(-c5c[nH]c6ccccc56)n4)(CC2)C3)CC1 [Compound 409, 1-(4-((1S,5R)-5-(5-chloro-4-(1H-indol-3-yl)pyrimidin-2-ylamino)bicyclo[3.2.1]octan-1-yl)piperazin-1-yl)prop-2-en-1-One]	< 0.5	–
> 1	–	–	–	CN(C)C/C=C/C(=O)N1CCCC(N2CC(Nc3ncc(Cl)c(-c4c[nH]c5ccccc45)n3)C2)C1 (stereo not shown) [compound 389]	–	< 0.5
< 0.1	–	–	–	Cc1cnc(N[C@@H]2CCC[C@H](NC(=O)c3ccc(NC(=O)/C=C/CN(C)C)cn3)C2)nc1-c1c[nH]c2ccccc12 [Compound 265, N-((1S,3R)-3-((4-(1H-indol-3-yl)-5-methylpyrimidin-2-yl)amino)cyclohexyl)-5-((E)-4-(dimethylamino)but-2-enamido)picolinamide]	< 0.5	–
< 0.1	–	< 0.1	–	C=CC(=O)N1CC(F)(F)C[C@H]1C(=O)N[C@H]1CCC[C@@H](Nc2ncc(Cl)c(-c3c[nH]c4ccccc34)n2)C1 [Compound 116, (S)-1-acryloyl-N-((1S,3R)-3-(5-chloro-4-(1H-indol-3-yl)pyrimidin-2-ylamino)cyclohexyl)-4,4-difluoropyrrolidine-2-carboxamide]	< 0.5	–
< 0.1	–	–	–	C=CC(=O)N1CC(F)(F)C[C@H]1C(=O)N[C@H]1CCC[C@@H](Nc2ncc(Cl)c(-c3n[nH]c4ccccc34)n2)C1 [compound 391]	–	< 0.5
< 0.1	–	–	–	CN(C)C/C=C/C(=O)N1CC(F)(F)C[C@H]1C(=O)N[C@H]1CCC[C@@H](Nc2ncc(Cl)c(-c3n[nH]c4ccccc34)n2)C1 [compound 404]	–	< 0.5
0.1 to 1	–	–	–	C=CC(=O)N1CCN([C@H]2CCC[C@@H](Nc3ncc(Cl)c(-c4cnc5ccccn45)n3)C2)CC1 [Compound 414, 1-[4-[(1S,3R)-3-[(5-chloro-4-imidazo[1,2-a]pyridin-3-yl-pyrimidin-2-yl)amino]cyclohexyl]piperazin-1-yl]prop-2-en-1-One]	< 0.5	–
< 0.1	–	–	–	CN(C)C/C=C/C(=O)N1CC(F)(F)C[C@H]1C(=O)N[C@H]1CCC[C@@H](Nc2ncc(C#N)c(-c3c[nH]c4ccccc34)n2)C1 [compound 396]	–	< 0.5
< 0.1	–	–	–	C=CC(=O)N1CCN([C@H]2CCC[C@@H](Nc3ncc(Cl)c(-c4c[nH]c5ccccc45)n3)C2)C(=O)C1 [compound 410]	–	< 0.5
0.1 to 1	–	–	–	C=CC(=O)NC1CC2CCC(C1)N2C1CCCC(Nc2ncc(Cl)c(-c3c[nH]c4ccccc34)n2)C1 (mixture of isomers) [Compound 259]	–	< 0.5
< 0.1	–	–	–	CN(C)C/C=C/C(=O)Nc1ccc(C(=O)N[C@H]2CCC[C@@H](Nc3ncc(Cl)c(-c4cccc5[nH]ccc45)n3)C2)nc1 [Compound 264, N-((1S,3R)-3-((5-chloro-4-(1H-indol-4-yl)pyrimidin-2-yl)amino)cyclohexyl)-5-((E)-4-(dimethylamino)but-2-enamido)picolinamide]	< 0.5	–
< 0.1	–	–	–	CN(C)C/C=C/C(=O)Nc1ccc(CN[C@@]2(C)CCC[C@@H](Nc3ncc(Cl)c(-c4c[nH]c5ccccc45)n3)C2)nc1 [Compound 294, (E)-N-(6-(((1S,3R)-3-(5-chloro-4-(1H-indol-3-yl)pyrimidin-2-ylamino)-1-methylcyclohexylamino)methyl)pyridin-3-yl)-4-(dimethylamino)but-2-enamide]	< 0.5	–
< 0.1	–	–	–	C=CC(=O)N1CC(F)(F)C[C@H]1C(=O)N[C@H]1CCC[C@@H](Nc2ncc(C#N)c(-c3c[nH]c4ccccc34)n2)C1 [compound 392]	–	< 0.5

SMILES	IC50 [1] [µM]	IC50 (Jurkat cells; Homo sapiens) [µM]	IC50 (CDK7) [µM]	IC50 (Jurkat cells) [µM]	IC50 (A673 cells; Homo sapiens) [µM]	IC50 (A673 cells) [µM]
CN(C)C/C=C/C(=O)Nc1ccc(C(=O)N[C@H]2CCC[C@@H](Nc3ncc(C(F)(F)F)c(-c4c[nH]c5ccccc45)n3)C2)nc1 [Compound 248, N-((1S,3R)-3-((4-(1H-indol-3-yl)-5-(trifluoromethyl)pyrimidin-2-yl)amino)cyclohexyl)-5-((E)-4-(dimethylamino)but-2-enamido)picolinamide]	< 0.1	–	< 0.1	–	< 0.5	–
